# Test results reported in patent US20240174727A1, “LONG-ACTING NATRIURETIC PEPTIDES AND USES THEREOF” (Eli Lilly and Company, priority 2022, published 2024).
# Substitutions are numbered along the chain they refer to. Numbered stars: 1 amine (or outer) side, 2 acyl side, 3 side chain; on linkers, the order of the positions; unused ones are H or OH. Bridge positions count the residues as written; N and C are the ends. Square brackets hold non-standard residues; d marks the D form. * marks the point of attachment. PEG24 = NCCOCCOCCOCCOCCOCCOCCOCCOCCOCCOCCOCCOCCOCCOCCOCCOCCOCCOCCOCCOCCOCCOCCOCCOCCC(=O)O; C20 diacid = O=C(O)CCCCCCCCCCCCCCCCCCC(=O)*; γGlu = O=C(O)[C@H](CCC(=O)[*:2])N[*:1]; CH2 = C([*:1])[*:2]; βAla = NCCC(=O)O
# B1: Example 50 (peptide)
# peptide: XEKEKEKGEKGRSSCFGGRIDRIGHYSGLGCPSFRHKGGPSSGAPPPS
# modifications: HOOC-(CH2)18-CO-(γGlu)-EKEKEKGEKGRSS[CFGGRIDRIGHYSGLGC]PSFRHKGGPSSGAPPPS-NH2; disulfide linkage between the bracketed Cys
# B2: Example 45 (peptide)
# peptide: XEKEKEKGEKGRSSCFGGKIDRIGHYSGLGCPSFRHGGPSSGAPPPS
# modifications: HOOC-(CH2)18-CO-(γGlu)-EKEKEKGEKGRSS[CFGGKIDRIGHYSGLGC]PSFRHGGPSSGAPPPS-NH2; disulfide linkage between the bracketed Cys
# B3: Example 49 (peptide)
# peptide: B2 peptide with G11E, K19R
# modifications: HOOC-(CH2)18-CO-(γGlu)-EKEKEKGEKERSS[CFGGRIDRIGHYSGLGC]PSFRHGGPSSGAPPPS-NH2; disulfide linkage between the bracketed Cys
# B4: Example 85 (peptide)
# peptide: B2 peptide with G11X, G18K, K19R, Y26Q, P39K
# modifications: HOOC-(CH2)18-CO-(γGlu)-EKEKEKGEK-βAla-RSS[CFGKRIDRIGHQSGLGC]PSFRHGGKSSGAPPPS-NH2; thioacetal linkage between the bracketed Cys
# Legend:
# [1] = tested on: plasma cGMP; experiment: In vivo monkey studies, plasma cGMP ELISA; design: species or system male cynomolgus monkeys; conditions: for Net cGMP (nM) Change from Baseline 0.083 h / Net cGMP (nM) Change from Baseline 0.25 h / Net cGMP (nM) Change from Baseline 0.5 h / Net cGMP (nM) Change from Baseline 1 h / Net cGMP (nM) Change from Baseline 2 h / Net cGMP (nM) Change from Baseline 4 h / Net cGMP (nM) Change from Baseline 8 h / Net cGMP (nM) Change from Baseline 12 h / Net cGMP (nM) Change from Baseline 24 h / Net cGMP (nM) Change from Baseline 36 h / Net cGMP (nM) Change from Baseline 48 h / Net cGMP (nM) Change from Baseline 72 h / Net cGMP (nM) Change from Baseline 96 h / Net cGMP (nM) Change from Baseline 120 h / Net cGMP (nM) Change from Baseline 144 h / Net cGMP (nM) Change from Baseline 168 h: dose 100 nmol/kg, monkey plasma; for Net cGMP (nM) Change from Baseline 0.083 h: 0.083 h postdose; for Net cGMP (nM) Change from Baseline 0.25 h: 0.25 h postdose; for Net cGMP (nM) Change from Baseline 0.5 h: 0.5 h postdose; for Net cGMP (nM) Change from Baseline 1 h: 1 h postdose; for Net cGMP (nM) Change from Baseline 2 h: 2 h postdose; for Net cGMP (nM) Change from Baseline 4 h: 4 h postdose; for Net cGMP (nM) Change from Baseline 8 h: 8 h postdose; for Net cGMP (nM) Change from Baseline 12 h: 12 h postdose; for Net cGMP (nM) Change from Baseline 24 h: 24 h postdose; for Net cGMP (nM) Change from Baseline 36 h: 36 h postdose; for Net cGMP (nM) Change from Baseline 48 h: 48 h postdose; for Net cGMP (nM) Change from Baseline 72 h: 72 h postdose; for Net cGMP (nM) Change from Baseline 96 h: 96 h postdose; for Net cGMP (nM) Change from Baseline 120 h: 120 h postdose; for Net cGMP (nM) Change from Baseline 144 h: 144 h postdose; for Net cGMP (nM) Change from Baseline 168 h: 168 h postdose; for net cGMP levels (result in words): monkeys, single SC dose, plasma
# Experimental: In vivo monkey studies were conducted as described in detail below. Young adult-to-adult male cynomolgus monkeys were given a single dose subcutaneously (SC). Blood was collected predose and at various pre-determined timepoints throughout the study period. Aliquot of cynomolgus monkey plasma was received for cyclic cGMP (cGMP) measurement and stored at −80° C. prior to use.
# Control plasma was made for determining the recovery rate of spike-in cGMP using Enzo cGMP complete ELISA kit (Enzo Life Sciences, Inc, Farmingdale, NY, cat no. ADI-901-164). Briefly, blood from male Sprague Dawley rats (Inotiv, Indianapolis, IN), about 7 months old, was collected in a BD Vacutainer EDTA tube (Becton Dickinson, Franklin Lakes, NJ, cat no. BD-367856) with volume of approximate 4 mL through retro orbital bleeding. Plasma was prepared by spinning the tube in an Eppendorf Refrigerated Centrifuge 5810R (Brinkman Instruments, Inc, Westbury, NY) at 3500 rpm (3000×g) for 10 min at 4° C. Plasma was collected as Positive Control plasma. Cyclic GMP (cGMP standard from Enzo cGMP complete ELISA kit) was added to the positive control plasma at a final concentration of additional 40 nM. Positive Control and Spiked-in Control plasma were aliquoted and stored at −80° C.
# The cGMP content was measured using the Enzo cGMP complete ELISA kit following the manufacturer's directions with modifications as described below. The cGMP standards provided in the kit were diluted 1:3 ranging from 50 nM to 0.023 nM in 1× assay buffer that was diluted in water from 2× assay buffer provided in the kit. The cGMP standards ([…]) were transferred to a 96-well polypropylene plate (Thermo Scientific, cat no. 442587).
# Plasma samples were thawed from −80° C. and diluted 1:20 in 1× assay buffer in the above plate with a final volume of 150 μL. Assay buffer was added (150 μL) for both a non-specific binding control (in the absence of cGMP antibody) and a maximum binding control (in the absence of competing cGMP) in duplicate wells. Positive Control and Spiked-in Control plasma were diluted 1:20 in 1× assay buffer with a final volume of 150 μL in duplicate wells of the above plate. All diluted plasma was mixed by pipetting up and down several times.
# Acetylation reagent mix was prepared by adding 1-part of acetic anhydride into 2-parts of triethylamine provided in the kit and mixing well using Vortex (Scientific Industries, Inc, Bohemia, NY). All controls, standards, and plasma samples were acetylated by adding 15 μL of acetylation reagent mix into the plate, one column at a time, and shaking for 1 min on a Titer Plate Shaker (Lab-Line Instrument, Inc., Melrose Park, IL) at room temperature. The plate was shaken for an additional 1 min following the acetylation of the last column to ensure the reaction was completed.
# Acetylated controls, standard and plasma samples were transferred (100 μL) to an ELISA plate (n=1). Then 50 μL of cGMP conjugate were added to each well followed by the addition of 50 μL cGMP antibody to each well except for two non-specific binding wells, in which 50 μL of 1× assay buffer were added. The plate was then sealed and shaken for 2 h at room temperature on the plate shaker. Following this incubation, the plate was washed five times using 200 μL of 1× wash buffer diluted in water from 5× wash buffer provided in the kit. Then, 200 μL of para-Nitrophenylphosphate (pNpp) were added to each well. The plate was sealed with a new plate sealer and shaken in dark for 1 h at room temperature on the plate shaker. Finally, 50 μL of stop solution were added to each well to stop the enzyme reaction. The plate was then read at 405 nm using SpectraMax Plus (Molecular Devices, San Jose, CA).
# The mean absorbance at 405 nm (O.D. 405 nm) for the non-specific binding controls was subtracted from the O.D. 405 nm of all samples. The subtracted O.D. 405 nm of all samples were then normalized with the mean subtracted O.D. 405 nm of the maximum binding controls as B/B0%. […]
# [2] = target: T1, human NPRA (human, UniProt P16066 33-1061); experiment: cell-based or functional assay
# T1 sequence (looked up): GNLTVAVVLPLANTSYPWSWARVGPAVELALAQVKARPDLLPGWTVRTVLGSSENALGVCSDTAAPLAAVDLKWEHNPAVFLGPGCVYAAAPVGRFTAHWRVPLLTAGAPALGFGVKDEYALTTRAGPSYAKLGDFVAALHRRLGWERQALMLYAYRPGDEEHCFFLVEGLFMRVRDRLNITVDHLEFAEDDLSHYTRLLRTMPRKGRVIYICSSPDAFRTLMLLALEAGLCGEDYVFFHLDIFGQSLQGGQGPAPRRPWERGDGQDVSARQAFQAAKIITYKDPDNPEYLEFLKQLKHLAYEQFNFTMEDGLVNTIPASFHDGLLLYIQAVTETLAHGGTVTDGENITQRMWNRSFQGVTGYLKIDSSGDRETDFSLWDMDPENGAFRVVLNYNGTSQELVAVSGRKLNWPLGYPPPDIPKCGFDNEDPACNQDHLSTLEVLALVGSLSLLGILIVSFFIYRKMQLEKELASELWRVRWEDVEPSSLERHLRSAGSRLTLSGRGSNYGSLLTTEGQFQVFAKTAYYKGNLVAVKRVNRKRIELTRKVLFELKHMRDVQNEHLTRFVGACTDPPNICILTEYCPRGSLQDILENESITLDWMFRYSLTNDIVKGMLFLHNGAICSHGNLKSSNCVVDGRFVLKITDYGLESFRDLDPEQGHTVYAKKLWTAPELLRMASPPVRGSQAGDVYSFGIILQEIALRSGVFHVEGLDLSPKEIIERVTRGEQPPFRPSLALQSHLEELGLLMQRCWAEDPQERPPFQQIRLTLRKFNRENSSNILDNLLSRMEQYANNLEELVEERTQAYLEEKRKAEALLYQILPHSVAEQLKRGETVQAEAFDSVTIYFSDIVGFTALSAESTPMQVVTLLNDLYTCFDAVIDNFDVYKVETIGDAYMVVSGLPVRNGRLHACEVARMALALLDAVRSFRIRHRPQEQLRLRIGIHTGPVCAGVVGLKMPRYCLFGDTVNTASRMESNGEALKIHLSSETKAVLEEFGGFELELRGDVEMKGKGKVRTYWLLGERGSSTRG
molecule,measurement,setting,value
{C20 diacid-γGlu}-EKEKEKG[PEG24]EK[βAla]RSSCFGKRIDRIGHYSGLGCPSFRHGSPSSGAPPPS-NH2 (linker 15-31 via CH2) [Example 106],Net cGMP (nM) Change from Baseline 0.083 h,[1],3.54 nM
same,Net cGMP (nM) Change from Baseline 0.25 h,[1],19.8 nM
same,Net cGMP (nM) Change from Baseline 0.5 h,[1],25.25 nM
same,Net cGMP (nM) Change from Baseline 1 h,[1],24.83 nM
same,Net cGMP (nM) Change from Baseline 2 h,[1],26.38 nM
same,Net cGMP (nM) Change from Baseline 4 h,[1],26.16 nM
same,Net cGMP (nM) Change from Baseline 8 h,[1],14.03 nM
same,Net cGMP (nM) Change from Baseline 12 h,[1],17.64 nM
same,Net cGMP (nM) Change from Baseline 24 h,[1],9.38 nM
same,Net cGMP (nM) Change from Baseline 36 h,[1],12.13 nM
same,Net cGMP (nM) Change from Baseline 48 h,[1],8.71 nM
same,Net cGMP (nM) Change from Baseline 72 h,[1],5.67 nM
same,Net cGMP (nM) Change from Baseline 96 h,[1],6.4 nM
same,Net cGMP (nM) Change from Baseline 120 h,[1],7.88 nM
same,Net cGMP (nM) Change from Baseline 144 h,[1],7.54 nM
same,Net cGMP (nM) Change from Baseline 168 h,[1],7.66 nM
same,net cGMP levels (result in words),[1],increased net cGMP levels
"(BFAEN2-βAla)-EKEKEKG-PEG24-EK-βAla-RSS[CFGKRIDRIGHQSGLGC]PSFRHGSPSSGAPPPS-NH2 (EKXRSSCFGKRIDRIGHQSGLGCPSFRHGSPSSGAPPPS; BFAEN2-βAla, PEG24, C-terminal amide; MOD_RES 1 N-terminal modified with (BFAEN2-beta-Ala)-EKEKEKG-PEG24-; wherein BFAEN2 is Bifurcated Fatty Acid Enantiomer 2; SITE 3 X at position 3 is beta-Alanine; MOD_RES 39 Amidation; DISULFID 7..23 Intrachain thioacetal bond) [Example 144]",Net cGMP (nM) Change from Baseline 0.083 h,[1],5.9 nM
same,Net cGMP (nM) Change from Baseline 0.25 h,[1],18.26 nM
same,Net cGMP (nM) Change from Baseline 0.5 h,[1],27.08 nM
same,Net cGMP (nM) Change from Baseline 1 h,[1],36.51 nM
same,Net cGMP (nM) Change from Baseline 2 h,[1],35.21 nM
same,Net cGMP (nM) Change from Baseline 4 h,[1],27.1 nM
same,Net cGMP (nM) Change from Baseline 8 h,[1],20.15 nM
same,Net cGMP (nM) Change from Baseline 12 h,[1],13.2 nM
same,Net cGMP (nM) Change from Baseline 24 h,[1],10.23 nM
same,Net cGMP (nM) Change from Baseline 36 h,[1],9.57 nM
same,Net cGMP (nM) Change from Baseline 48 h,[1],7.11 nM
same,Net cGMP (nM) Change from Baseline 72 h,[1],5.22 nM
same,Net cGMP (nM) Change from Baseline 96 h,[1],6.83 nM
same,Net cGMP (nM) Change from Baseline 120 h,[1],3.5 nM
same,Net cGMP (nM) Change from Baseline 144 h,[1],4.48 nM
same,Net cGMP (nM) Change from Baseline 168 h,[1],8.71 nM
same,net cGMP levels (result in words),[1],increased net cGMP levels
B1,"cGMP Assay (EC50, pM) w/Casein",[2],614 pM
B2,"cGMP Assay (EC50, pM) w/BSA",[2],25200 pM
B3,"cGMP Assay (EC50, pM) w/Casein",[2],299 pM
B4,"cGMP Assay (EC50, pM) w/Casein",[2],361 pM
